# Laboratory results: patent publication US9873696B2, “Neprilysin inhibitors” (THERAVANCE BIOPHARMA R&D IP, LLC, priority 2010, dated 2018)
# Biological target: T1, human NEP (Homo sapiens, UniProt P08473)
# T1 construct: purchased R&D Systems, Minneapolis, Minn; 1182-ZN
# Test: In vitro enzyme inhibition assay at human NEP (Assay 1)
# Assay type: biochemical
# Conditions: recombinant enzyme, fluorogenic peptide substrate, 37° C.
# Experimental: In Vitro Assays for the Quantitation of Inhibitor Potencies (IC50) at Human and Rat NEP, and Human ACE
# The inhibitory activities of compounds at human and rat neprilysin (EC 3.4.24.11; NEP) and human angiotensin converting enzyme (ACE) were determined using in vitro assays as described below.
# Recombinant human NEP and recombinant human ACE were obtained commercially (R&D Systems, Minneapolis, Minn., catalog numbers 1182-ZN and 929-ZN, respectively). The fluorogenic peptide substrate Mca-D-Arg-Arg-Leu-Dap-(Dnp)-OH (Medeiros et al. (1997) Braz. J. Med. Biol. Res. 30:1157-62; Anaspec, San Jose, Calif.) and Abz-Phe-Arg-Lys(Dnp)-Pro-OH (Araujo et al. (2000) Biochemistry 39:8519-8525; Bachem, Torrance, Calif.) were used in the NEP and ACE assays respectively.
# The assays were performed in 384-well white opaque plates at 37° C. using the fluorogenic peptide substrates at a concentration of 10 μM in Assay Buffer (NEP: 50 mM HEPES, pH 7.5, 100 mM NaCl, 0.01% polyethylene glycol sorbitan monolaurate (Tween-20), 10 μM ZnSO4; ACE: 50 mM HEPES, pH 7.5, 100 mM NaCl, 0.01% Tween-20, 1 μM ZnSO4).
# Test compounds were assayed over the range of concentrations from […] to 20 μM. Test compounds were added to the enzymes and incubated for 30 minute at 37° C. prior to initiating the reaction by the addition of substrate. Reactions were terminated after 20 minutes of incubation at 37° C. by the addition of glacial acetic acid to a final concentration of 3.6% (v/v).
# Plates were read on a fluorometer with excitation and emission wavelengths set to 320 nm and 405 nm, respectively. Inhibition constants were obtained by nonlinear regression of the data using the equation (GraphPad Software, Inc., San Diego, Calif.): v=v0/[1+(I/K′)] where v is the reaction rate, v0 is the uninhibited reaction rate, I is the inhibitor concentration and K′ is the apparent inhibition constant.
# Compounds of the invention were tested in this assay and found to have pKi values at human NEP as follows.
# T1 sequence (P08473 whole entry): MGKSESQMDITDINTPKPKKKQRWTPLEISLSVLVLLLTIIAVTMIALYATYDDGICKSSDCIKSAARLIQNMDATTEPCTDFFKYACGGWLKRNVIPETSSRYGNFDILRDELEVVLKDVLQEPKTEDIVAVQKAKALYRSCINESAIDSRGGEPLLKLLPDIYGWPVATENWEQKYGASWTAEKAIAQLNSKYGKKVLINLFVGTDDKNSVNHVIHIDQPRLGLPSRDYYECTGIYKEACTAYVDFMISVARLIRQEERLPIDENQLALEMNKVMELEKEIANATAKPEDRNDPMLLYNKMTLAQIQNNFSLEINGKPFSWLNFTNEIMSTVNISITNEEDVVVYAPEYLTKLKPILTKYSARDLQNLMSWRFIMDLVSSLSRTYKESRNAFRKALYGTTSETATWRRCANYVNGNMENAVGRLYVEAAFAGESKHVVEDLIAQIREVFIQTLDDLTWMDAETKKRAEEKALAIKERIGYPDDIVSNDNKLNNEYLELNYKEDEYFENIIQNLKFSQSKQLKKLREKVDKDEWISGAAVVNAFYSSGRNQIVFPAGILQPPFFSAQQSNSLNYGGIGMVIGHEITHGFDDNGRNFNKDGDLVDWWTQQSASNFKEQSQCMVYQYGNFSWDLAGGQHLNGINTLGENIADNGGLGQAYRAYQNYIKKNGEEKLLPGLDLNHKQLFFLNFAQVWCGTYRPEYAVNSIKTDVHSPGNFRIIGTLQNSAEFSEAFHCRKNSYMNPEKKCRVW
row,Compound,Ki [nM]
1,"COc1ccccc1-c1cc(C(=O)NN(Cc2ccc(-c3cccc(Cl)c3)cc2)C[C@@H](O)C(=O)O)[nH]n1 [Example 4-20, (R)-3-{N-(3′-Chlorobiphenyl-4-ylmethyl)-N′-[5-(2-methoxy-phenyl)-2H-pyrazole-3-carbonyl]-hydrazino}-2-hydroxy-propionic acid]",1.26 to 10
2,"O=C(NN(Cc1ccc(-c2cccc(Cl)c2)cc1)C[C@@H](O)C(=O)O)c1cc(-c2ccccn2)n[nH]1 [Example 4-21, (R)-3-[N-(3′-Chlorobiphenyl-4-ylmethyl)-N′-(5-pyridin-2-yl-2H-pyrazole-3-carbonyl)-hydrazino]-2-hydroxy-propionic acid]",1.26 to 10
3,"CCCCc1cc(C(=O)NN(Cc2ccc(-c3cccc(Cl)c3)cc2)C[C@@H](O)C(=O)O)[nH]n1 [Example 4-22, (R)-3-[N′-(5-Butyl-2H-pyrazole-3-carbonyl)-N-(3′-chlorobiphenyl-4-ylmethyl)-hydrazino]-2-hydroxy-propionic acid]",≤ 1
4,"O=C(O)c1cc(C(=O)NN(Cc2ccc(-c3cccc(Cl)c3)cc2)C[C@@H](O)C(=O)O)[nH]n1 [Example 4-23, 5-[N′-((R)-2-Carboxy-2-hydroxy-ethyl)-N′-(3′-chlorobiphenyl-4-ylmethyl)-hydrazinocarbonyl]-1H-pyrazole-3-carboxylic acid]",≤ 1
5,"O=C(NN(Cc1ccc(-c2cccc(Cl)c2)cc1)C[C@@H](O)C(=O)O)c1cc(-c2cnccn2)n[nH]1 [Example 4-24, (R)-3-[N-(3′-Chlorobiphenyl-4-ylmethyl)-N′-(5-pyrazin-2-yl-2H-pyrazole-3-carbonyl)-hydrazino]-2-hydroxy-propionic acid]",1.26 to 10
6,"CC(=O)c1cc(C(=O)NN(Cc2ccc(-c3cccc(Cl)c3)cc2)C[C@@H](O)C(=O)O)[nH]n1 [Example 4-25, (R)-3-[N′-(5-Acetyl-2H-pyrazole-3-carbonyl)-N-(3′-chlorobiphenyl-4-ylmethyl)-hydrazino]-2-hydroxy-propionic acid]",≤ 1
7,"COCc1cc(C(=O)NN(Cc2ccc(-c3cccc(Cl)c3)cc2)C[C@@H](O)C(=O)O)[nH]n1 [Example 4-26, (R)-3-[N-(3′-Chlorobiphenyl-4-ylmethyl)-N′-(5-methoxymethyl-2H-pyrazole-3-carbonyl)-hydrazino]-2-hydroxy-propionic acid]",1.26 to 10
8,"CC(C)(O)c1cc(C(=O)NN(Cc2ccc(-c3cccc(Cl)c3)cc2)C[C@@H](O)C(=O)O)[nH]n1 [Example 4-27, (R)-3-{N-(3′-Chlorobiphenyl-4-ylmethyl)-N′-[5-(1-hydroxy-1-methyl-ethyl)-2H-pyrazole-3-carbonyl]-hydrazino}-2-hydroxy-propionic acid]",1.26 to 10
9,"O=C(NN(Cc1ccc(-c2cccc(Cl)c2)cc1)C[C@@H](O)C(=O)O)c1cnc(-c2ccccc2)o1 [Example 4-28, (R)-3-[N-(3′-Chlorobiphenyl-4-ylmethyl)-N′-(2-phenyl-oxazole-5-carbonyl)-hydrazino]-2-hydroxy-propionic acid]",12.6 to 100
10,"O=C(NN(Cc1ccc(-c2cccc(Cl)c2)cc1)C[C@@H](O)C(=O)O)c1cc(-c2ccccc2Cl)no1 [Example 4-29, (R)-3-{N-(3′-Chlorobiphenyl-4-ylmethyl)-N′-[3-(2-chlorophenyl)-isoxazole-5-carbonyl]-hydrazino}-2-hydroxy-propionic acid]",≤ 1
11,"COc1ccccc1-c1cc(C(=O)NN(Cc2ccc(-c3cccc(Cl)c3)cc2)C[C@@H](O)C(=O)O)on1 [Example 4-30, (R)-3-{N-(3′-Chlorobiphenyl-4-ylmethyl)-N′-[3-(2-methoxy-phenyl)-isoxazole-5-carbonyl]-hydrazino}-2-hydroxy-propionic acid]",1.26 to 10
12,"O=C(NN(Cc1ccc(-c2cccc(Cl)c2)cc1)C[C@@H](O)C(=O)O)c1cc(-c2ccccc2F)no1 [Example 4-31, (R)-3-{N-(3′-Chlorobiphenyl-4-ylmethyl)-N′-[3-(2-fluorophenyl)-isoxazole-5-carbonyl]-hydrazino}-2-hydroxy-propionic acid]",1.26 to 10
13,"COc1cc(C(=O)NN(Cc2ccc(-c3cccc(Cl)c3)cc2)C[C@@H](O)C(=O)O)on1 [Example 4-32, (R)-3-[N-(3′-Chlorobiphenyl-4-ylmethyl)-N′-(3-methoxy-isoxazole-5-carbonyl)-hydrazino]-2-hydroxy-propionic acid]",1.26 to 10
14,"O=C(NN(Cc1ccc(-c2cccc(Cl)c2)cc1)C[C@@H](O)C(=O)O)c1cnc(O)nc1 [Example 4-34, (R)-3-[N-(3′-Chlorobiphenyl-4-ylmethyl)-N′-(2-hydroxy-pyrimidine-5-carbonyl)-hydrazino]-2-hydroxy-propionic acid]",≤ 1
15,"O=C(O)c1cc(C(=O)NN(Cc2ccc(-c3cccc(Cl)c3)cc2)C[C@@H](O)C(=O)O)ncn1 [Example 4-35, 6-[N′-((R)-2-Carboxy-2-hydroxy-ethyl)-N′-(3′-chlorobiphenyl-4-ylmethyl)-hydrazinocarbonyl]-pyrimidine-4-carboxylic acid]",≤ 1

# Now from value to compound:
row,Ki [nM],Compound
1,12.6 to 100,"O=C(NN(Cc1ccc(-c2cccc(Cl)c2)cc1)C[C@@H](O)C(=O)O)c1cc(O)nc(O)n1 [Example 4-36, (R)-3-[N-(3′-Chlorobiphenyl-4-ylmethyl)-N′-(2,6-dihydroxy-pyrimidine-4-carbonyl)-hydrazino]-2-hydroxy-propionic acid]"
2,12.6 to 100,"O=C(NN(Cc1ccc(-c2cccc(Cl)c2)cc1)C[C@@H](O)C(=O)O)c1ccnc(O)n1 [Example 4-37, (R)-3-[N-(3′-Chlorobiphenyl-4-ylmethyl)-N′-(2-hydroxy-pyrimidine-4-carbonyl)-hydrazino]-2-hydroxy-propionic acid]"
3,≤ 1,"O=C(O)c1cc(C(=O)NN(Cc2ccc(-c3cccc(Cl)c3)cc2)C[C@@H](O)C(=O)O)nc(O)n1 [Example 4-38, 6-[N′-((R)-2-Carboxy-2-hydroxy-ethyl)-N′-(3′-chlorobiphenyl-4-ylmethyl)-hydrazinocarbonyl]-2-hydroxy-pyrimidine-4-carboxylic acid]"
4,1.26 to 10,"O=C(NN(Cc1ccc(-c2cccc(Cl)c2)cc1)C[C@@H](O)C(=O)O)c1c[nH]c(=O)o1 [Example 4-39, (R)-3-[N-(3′-Chlorobiphenyl-4-ylmethyl)-N′-(2-oxo-2,3-dihydro-oxazole-5-carbonyl)-hydrazino]-2-hydroxy-propionic acid]"
5,1.26 to 10,"O=C(NN(Cc1ccc(-c2cccc(Cl)c2)cc1)C[C@@H](O)C(=O)O)c1cnc(O)s1 [Example 4-40, (R)-3-[N-(3′-Chlorobiphenyl-4-ylmethyl)-N′-(2-hydroxy-thiazole-5-carbonyl)-hydrazino]-2-hydroxy-propionic acid]"
6,1.26 to 10,"O=C(NN(Cc1ccc(-c2cccc(Cl)c2)cc1)C[C@@H](O)C(=O)O)c1ccc2[nH]nnc2c1F [Example 4-42, (R)-3-[N-(3′-Chlorobiphenyl-4-ylmethyl)-N′-(4-fluoro-1H-benzotriazole-5-carbonyl)-hydrazino]-2-hydroxy-propionic acid]"
7,1.26 to 10,"O=C(NN(Cc1ccc(-c2cccc(F)c2)cc1)C[C@@H](O)C(=O)O)c1cc(O)no1 [Example 5-1, (R)-3-[N-(3′-Fluoro-biphenyl-4-ylmethyl)-N′-(3-hydroxy-isoxazole-5-carbonyl)-hydrazino]-2-hydroxy-propionic acid]"
